From publication PMC7236921, “γ-Secretase modulators exhibit selectivity for modulation of APP cleavage but inverse γ-secretase modulators do not” (Alzheimer's Research & Therapy, 2020)

Key:
[1] = target: T1, PS2 γ-secretase (PS2 membrane, PSEN1−/− PSEN2+/+) (Homo sapiens, UniProt P49810); experiment: cell-free cleavage of rC100sub, IP-MS of Abeta; assay type: biochemical; details: inverse modulator (iGSM), 100 μM; substrate rC100sub (APP C100); pH 6.5, 37 °C, 2 h
T1 construct: endogenous complex in CHAPSO-solubilized membrane of HEK 293T cells expressing only PS2; with Nicastrin; Gamma-secretase subunit APH-1A; Gamma-secretase subunit PEN-2

[2] = target: T2, PS1 γ-secretase (PS1 membrane, PSEN1+/+ PSEN2−/−) (Homo sapiens, UniProt P49768); experiment: cell-free cleavage of rC100sub, IP-MS of Abeta; assay type: biochemical; details: inverse modulator (iGSM), 100 μM; substrate rC100sub (APP C100); pH 6.5, 37 °C, 2 h
T2 construct: endogenous complex in CHAPSO-solubilized membrane of HEK 293T cells expressing only PS1; with Nicastrin; Gamma-secretase subunit APH-1A; Gamma-secretase subunit PEN-2

## CC(C)OC(=O)C(C)(C)Oc1ccc(C(=O)c2ccc(Cl)cc2)cc1 [fenofibrate]
[1]
  percentage change of Aβ38: iGSMs had an enhanced response when compared to WT
[2]
  percentage change of Aβ38: the iGSM treatment resulted in only slight changes in the peptides produced
